Assay results reported in patent US8420657B2 (Novartis AG, priority 2008, dated 2013).
Read-outs that look alike come from different tables or passages of the source.

Experiments:
Format in all cases: biochemical
GST-JAK2(808-1132) = target: T1, GST-JAK2(808-1132) (Homo sapiens, UniProt O60674); test: JAK2 kinase assay (Caliper mobility shift, LabChip 3000)
T1 construct: GST-JAK2(808-1132); purchased Invitrogen (Carlsbad, USA) #4288
Method in brief: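 Eight-point compound series (final 10–0.003 μM) tested on purchased GST-JAK2 kinase domain (808-1132). Peptide FITC-JAK3tide plus ATP reacted 60 min, 30 °C, then quenched with EDTA; turnover from charge-based separation of substrate and product.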

ALK = target: T2, ALK (Homo sapiens, UniProt Q9UM73); test: ALK LanthaScreen TR-FRET kinase phosphorylation assay; settings: recombinant kinase domain
T2 construct: using the recombinant domains of cMet, cKit, ALK and PDGFRalpha kinases
T2 sequence (Q9UM73 1116-1392 limits assumed, species assumed): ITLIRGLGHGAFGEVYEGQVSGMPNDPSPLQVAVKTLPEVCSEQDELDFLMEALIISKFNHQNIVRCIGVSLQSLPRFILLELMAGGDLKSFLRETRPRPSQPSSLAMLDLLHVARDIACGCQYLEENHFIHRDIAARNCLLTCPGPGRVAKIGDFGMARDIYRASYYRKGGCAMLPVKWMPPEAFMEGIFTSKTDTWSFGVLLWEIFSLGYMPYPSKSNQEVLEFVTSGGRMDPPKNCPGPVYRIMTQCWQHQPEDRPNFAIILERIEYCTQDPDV
Method: (§1) The compounds are assayed in an antibody based kinase phosphorylation assay using the recombinant domains of cMet, cKit, ALK and PDGFRalpha kinases and a generic phospho-tyrosine peptide substrate. LanthaScreen™ is the detection of Time-Resolved Fluorescence Resonance Energy Transfer (TR-FRET) using lanthanide chelates to measure interactions between various binding partners. In a TR-FRET kinase assay, a long-lifetime lanthanide donor species is conjugated to an antibody that specifically binds to a phosphorylated product of a kinase reaction that is labeled with a suitable acceptor fluorophore. This antibody-mediated interaction brings the lanthanide donor and the acceptor into proximity such that resonance energy transfer can take place, resulting in a detectible increase in FRET. The LanthaScreen is run at ambient temperature and terminated by the addition of stop solution, followed by Tb-labeled P-20 antibody. After incubating in the dark, the plates are transferred to a fluorescence reader for counting. The effect of compound on the enzymatic activity is in all assays obtained from the linear progress curves and determined from one reading (end point measurement).

cMet = target: T3, cMet (Homo sapiens, UniProt P08581); test: cMet LanthaScreen TR-FRET kinase phosphorylation assay; settings: recombinant kinase domain
T3 construct: using the recombinant domains of cMet, cKit, ALK and PDGFRalpha kinases
T3 sequence (P08581 1078-1345 limits assumed): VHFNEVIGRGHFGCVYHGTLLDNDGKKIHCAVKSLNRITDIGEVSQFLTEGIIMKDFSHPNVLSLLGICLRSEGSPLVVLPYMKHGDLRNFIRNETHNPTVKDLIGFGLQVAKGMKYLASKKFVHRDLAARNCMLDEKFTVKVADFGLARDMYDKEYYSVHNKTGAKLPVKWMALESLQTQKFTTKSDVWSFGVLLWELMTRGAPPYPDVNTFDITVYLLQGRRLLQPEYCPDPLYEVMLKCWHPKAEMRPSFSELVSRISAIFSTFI
Method: as §1

PDGFRalpha = target: T4, PDGFRalpha (Homo sapiens, UniProt P16234); test: PDGFRalpha LanthaScreen TR-FRET kinase phosphorylation assay; settings: recombinant kinase domain, read-out: PDGFRa/IC50
T4 construct: using the recombinant domains of cMet, cKit, ALK and PDGFRalpha kinases
T4 sequence (P16234 593-954 limits assumed, species assumed): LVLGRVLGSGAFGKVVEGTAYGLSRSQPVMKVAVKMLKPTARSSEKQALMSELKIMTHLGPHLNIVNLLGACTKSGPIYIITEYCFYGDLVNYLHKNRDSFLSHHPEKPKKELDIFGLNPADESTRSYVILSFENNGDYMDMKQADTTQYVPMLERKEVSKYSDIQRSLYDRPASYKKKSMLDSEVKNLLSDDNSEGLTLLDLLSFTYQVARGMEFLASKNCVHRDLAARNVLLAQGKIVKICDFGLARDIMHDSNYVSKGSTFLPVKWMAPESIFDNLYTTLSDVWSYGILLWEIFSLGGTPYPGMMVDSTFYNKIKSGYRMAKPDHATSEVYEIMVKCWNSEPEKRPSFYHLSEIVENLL
Method: as §1

cKit = target: T5, cKit (Homo sapiens, UniProt P10721); test: cKit LanthaScreen TR-FRET kinase phosphorylation assay; settings: recombinant kinase domain
T5 construct: using the recombinant domains of cMet, cKit, ALK and PDGFRalpha kinases
T5 sequence (P10721 589-937 limits assumed): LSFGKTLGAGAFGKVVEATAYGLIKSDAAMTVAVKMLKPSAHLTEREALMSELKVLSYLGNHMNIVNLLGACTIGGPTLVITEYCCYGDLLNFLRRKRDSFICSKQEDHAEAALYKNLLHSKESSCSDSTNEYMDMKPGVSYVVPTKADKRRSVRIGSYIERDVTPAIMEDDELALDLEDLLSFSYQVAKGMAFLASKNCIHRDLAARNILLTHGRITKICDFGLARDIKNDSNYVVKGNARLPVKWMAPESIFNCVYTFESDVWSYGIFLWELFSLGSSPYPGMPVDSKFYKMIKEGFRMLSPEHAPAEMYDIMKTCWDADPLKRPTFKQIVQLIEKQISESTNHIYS
Method: as §1

T1 sequence (O60674 808-1132): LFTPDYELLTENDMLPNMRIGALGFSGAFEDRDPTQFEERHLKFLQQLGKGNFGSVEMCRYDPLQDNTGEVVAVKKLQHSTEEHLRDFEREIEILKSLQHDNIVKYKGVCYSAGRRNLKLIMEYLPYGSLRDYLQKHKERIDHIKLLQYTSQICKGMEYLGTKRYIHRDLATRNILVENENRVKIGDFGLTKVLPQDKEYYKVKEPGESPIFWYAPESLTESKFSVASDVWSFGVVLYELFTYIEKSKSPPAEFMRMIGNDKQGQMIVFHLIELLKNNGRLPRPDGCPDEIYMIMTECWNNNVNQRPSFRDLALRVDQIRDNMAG

COCc1ccc(Nc2ncc3ccn(-c4cc(F)c(CN5CCS(=O)(=O)CC5)c(F)c4)c3n2)cc1 [Example 184, {7-[4-(1,1-Dioxido-thiomorpholin-4-ylmethyl)-3,5-difluoro-phenyl]-7H-pyrrolo[2,3-d]pyrimidin-2-yl}-(4-methoxymethyl-phenyl)-amine]
IC50 (GST-JAK2(808-1132)): < 0.003 µM | IC50 (GST-JAK2(808-1132); Table 3): < 0.003 µM | IC50 (ALK): > 10 µM | IC50 (cMet): > 10 µM | IC50 (PDGFRalpha): > 10 µM | IC50 (cKit): > 10 µM

Cc1ccc(Nc2ncc3ccn(-c4cc(F)c(CN5CCNC(=O)C5)c(F)c4)c3n2)cc1CN1CCNCC1 [Example 382, 4-{2,6-Difluoro-4-[2-(4-methyl-3-piperazin-1-ylmethyl-phenylamino)-pyrrolo[2,3-d]pyrimidin-7-yl]-benzyl}-piperazin-2-one]
IC50 (GST-JAK2(808-1132)): 0.0035 µM | IC50 (GST-JAK2(808-1132); Table 3): 0.0035 µM | IC50 (ALK): > 10 µM | IC50 (cMet): 2.4 µM | IC50 (PDGFRalpha): 7.7 µM | IC50 (cKit): 1.1 µM

CN1CCN(c2ccc(Nc3ncc4ccn(-c5cc(F)c(CN6CCS(=O)(=O)CC6)c(F)c5)c4n3)nc2)CC1 [Example 440, {7-[4-(1,1-Dioxido-thiomorpholin-4-ylmethyl)-3,5-difluoro-phenyl]-7H-pyrrolo[2,3-d]pyrimidin-2-yl}-[5-(4-methyl-piperazin-1-yl)-pyridin-2-yl]-amine]
IC50 (GST-JAK2(808-1132)): 0.0032 µM | IC50 (GST-JAK2(808-1132); Table 3): 0.0032 µM | IC50 (ALK): > 10 µM | IC50 (cMet): > 10 µM | IC50 (PDGFRalpha): > 10 µM | IC50 (cKit): > 10 µM

COCc1c(F)cc(-n2ccc3cnc(Nc4ccc(N5CCN(C)CC5)nc4)nc32)cc1F [Example 446, [7-(3,5-Difluoro-4-methoxymethyl-phenyl)-7H-pyrrolo[2,3-d]pyrimidin-2-yl]-[6-(4-methyl-piperazin-1-yl)-pyridin-3-yl]-amine]
IC50 (GST-JAK2(808-1132)): 0.0043 µM | IC50 (GST-JAK2(808-1132); Table 3): 0.0043 µM | IC50 (ALK): > 10 µM | IC50 (cMet): 6 µM | IC50 (PDGFRalpha): 7.45 µM | IC50 (cKit): 2.65 µM

Cn1cc(Nc2ncc3ccn(-c4ccc(CC(=O)N5CCOCC5)cc4)c3n2)cn1 [Example 301, 2-{4-[2-(1-Methyl-1H-pyrazol-4-ylamino)-pyrrolo[2,3-d]pyrimidin-7-yl]-phenyl}-1-morpholin-4-yl-ethanone]
IC50 (GST-JAK2(808-1132)): < 0.003 µM | IC50 (GST-JAK2(808-1132); Table 3): < 0.003 µM | IC50 (ALK): > 10 µM | IC50 (cMet): 3.6 µM | IC50 (PDGFRalpha): 5.6 µM | IC50 (cKit): 4.75 µM

CC1(C)NCCN(c2cc(Nc3ncc4ccn(-c5cc(F)c(CN6CCOCC6)c(F)c5)c4n3)ccn2)C1=O [Example 503, 1-{4-[7-(3,5-Difluoro-4-morpholin-4-ylmethyl-phenyl)-7H-pyrrolo[2,3-d]pyrimidin-2-ylamino]-pyridin-2-yl}-3,3-dimethyl-piperazin-2-one]
IC50 (GST-JAK2(808-1132)): ≤ 0.003 µM | IC50 (GST-JAK2(808-1132); Table 3): < 0.003 µM | IC50 (ALK): > 10 µM | IC50 (cMet): 6.1 µM | IC50 (PDGFRalpha): > 10 µM | IC50 (cKit): 9.5 µM

C[C@@H]1CN(c2ccc(Nc3ncc4ccn(-c5ccc(NS(C)(=O)=O)cc5)c4n3)cn2)C[C@H](C)N1 [Example 380, N-(4-{2-[6-(cis-3,5-Dimethyl-piperazin-1-yl)-pyridin-3-ylamino]-pyrrolo[2,3-d]pyrimidin-7-yl}-phenyl)-methanesulfonamide]
IC50 (GST-JAK2(808-1132)): 0.0032 µM | IC50 (GST-JAK2(808-1132); Table 3): 0.0032 µM | IC50 (ALK): > 10 µM | IC50 (cMet): 5.4 µM | IC50 (PDGFRalpha): 5.3 µM | IC50 (cKit): 1.7 µM

Cc1ccc(Nc2ncc3ccn(-c4ccc(C(=O)N5CCOCC5)cc4)c3n2)cn1 [Example 238, {4-[2-(6-Methyl-pyridin-3-ylamino)-pyrrolo[2,3-d]pyrimidin-7-yl]-phenyl}-morpholin-4-yl-methanone]
IC50 (GST-JAK2(808-1132)): 0.0111 µM | IC50 (GST-JAK2(808-1132); Table 3): 0.0111 µM | IC50 (ALK): > 10 µM | IC50 (cMet): 8.2 µM | IC50 (PDGFRalpha): 6.6 µM | IC50 (cKit): > 10 µM

COc1cc(Nc2ncc3ccn(-c4ccc(C(=O)N5CCOCC5)c(F)c4)c3n2)ccc1F [Example 151, {2-Fluoro-4-[2-(4-fluoro-3-methoxy-phenylamino)-pyrrolo[2,3-d]pyrimidin-7-yl]-phenyl}-morpholin-4-yl-methanone]
IC50 (GST-JAK2(808-1132)): 0.0057 µM | IC50 (GST-JAK2(808-1132); Table 3): 0.0057 µM | IC50 (ALK): > 10 µM | IC50 (cMet): > 10 µM | IC50 (PDGFRalpha): > 10 µM | IC50 (cKit): > 10 µM

Fc1cc(-n2ccc3cnc(Nc4ccnc(CN5CCNCC5)c4)nc32)cc(F)c1CN1CCOCC1 [Example 372, [7-(3,5-Difluoro-4-morpholin-4-ylmethyl-phenyl)-7H-pyrrolo[2,3-d]pyrimidin-2-yl]-(2-piperazin-1-ylmethyl-pyridin-4-yl)-amine]
IC50 (GST-JAK2(808-1132)): 0.0047 µM | IC50 (GST-JAK2(808-1132); Table 3): 0.0047 µM | IC50 (ALK): > 10 µM | IC50 (cMet): > 10 µM | IC50 (PDGFRalpha): > 10 µM | IC50 (cKit): 5.7 µM

Cc1ccc(Nc2ncc3ccn(-c4cc(F)c(CN5CCOCC5)c(F)c4)c3n2)cc1CN1CCNCC1 [Example 332, [7-(3,5-Difluoro-4-morpholin-4-ylmethyl-phenyl)-7H-pyrrolo[2,3-d]pyrimidin-2-yl]-(4-methyl-3-piperazin-1-ylmethyl-phenyl)-amine]
IC50 (GST-JAK2(808-1132)): ≤ 0.003 µM | IC50 (ALK): 9.05 µM | IC50 (cMet): 7.57 µM | IC50 (PDGFRalpha): 6.7 µM | IC50 (cKit): 1.55 µM

Cc1ccc(Nc2ncc3ccn(-c4ccc(C(=O)N5CCN(CCO)CC5)cc4)c3n2)cc1C [Example 300, {4-[2-(3,4-Dimethyl-phenylamino)-pyrrolo[2,3-d]pyrimidin-7-yl]-phenyl}-[4-(2-hydroxy-ethyl)-piperazin-1-yl]-methanone]
IC50 (GST-JAK2(808-1132)): 0.0175 µM | IC50 (GST-JAK2(808-1132); Table 3): 0.0175 µM | IC50 (ALK): > 10 µM | IC50 (cMet): > 10 µM | IC50 (PDGFRalpha): 7.7 µM | IC50 (cKit): 3.4 µM

CN1CCN(C(=O)c2cccc(Nc3ncc4ccn(-c5cc(F)c(CN6CCOCC6)c(F)c5)c4n3)c2)CC1 [Example 203, {3-[7-(3,5-Difluoro-4-morpholin-4-ylmethyl-phenyl)-7H-pyrrolo[2,3-d]pyrimidin-2-ylamino]-phenyl}-(4-methyl-piperazin-1-yl)-methanone]
IC50 (GST-JAK2(808-1132)): 0.0074 µM | IC50 (GST-JAK2(808-1132); Table 3): 0.0064 µM | IC50 (ALK): > 10 µM | IC50 (cMet): 6.9 µM | IC50 (PDGFRalpha): > 10 µM | IC50 (cKit): 4.7 µM

Cc1cc(Nc2ncc3ccn(-c4ccc(C(=O)N5CCOCC5)c(F)c4)c3n2)nn1C [Example 311, {4-[2-(1,5-Dimethyl-1H-pyrazol-3-ylamino)-pyrrolo[2,3-d]pyrimidin-7-yl]-2-fluoro-phenyl}-morpholin-4-yl-methanone]
IC50 (GST-JAK2(808-1132)): 0.031 µM | IC50 (GST-JAK2(808-1132); Table 3): 0.031 µM | IC50 (ALK): > 10 µM | IC50 (cMet): > 10 µM | IC50 (PDGFRalpha): > 10 µM | IC50 (cKit): > 10 µM

CC(C)Oc1ccc(Nc2ncc3ccn(-c4ccc(C#N)cc4)c3n2)cc1 [Example 96, 4-[2-(4-Isopropoxy-phenylamino)-pyrrolo[2,3-d]pyrimidin-7-yl]-benzonitrile]
IC50 (GST-JAK2(808-1132)): 0.0485 µM | IC50 (GST-JAK2(808-1132); Table 3): 0.0485 µM | IC50 (ALK): > 10 µM | IC50 (cMet): > 10 µM | IC50 (PDGFRalpha): > 10 µM | IC50 (cKit): > 10 µM
